Laboratory results taken from the supplement of paper PMC10307832.

Compound: Cc1ccc2nc(NCCN)c3ncc(C)n3c2c1 + CCNC(=O)c1noc(-c2cc(C(C)C)c(O)cc2O)c1-c1ccc(CN2CCOCC2)cc1 [Luminespib] (partner 0.01 µM)
Assay: relative viability (nuclei count vs DMSO), 5 days (fraction); higher = more cells survive
Conditions: first compound 0.04 µM
Method in brief: (§1)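 Lung cancer cell lines, seeded in 1536-well plates, were treated the following day by pin tool with a single drug or with five library-drug doses (not always all listed) in √10 steps on top of a fixed anchor-drug dose. Cells were fixed and nuclei stained in one step after 5 days, and nuclei were counted. Relative viability is the nuclei count for treated wells divided by that for vehicle wells, reported as medians of duplicate plates.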

NCI-H1975 was tested. Which relative viability did it give?
Its relative viability is 0.224.

With RERF-LC-KJ as the cell line, how does the relative viability read?
Its relative viability is 1.13.

With ABC-1 as the cell line, how does the relative viability read?
Its relative viability is 0.507.

How did the relative viability turn out when NCI-H1944 was run?
The relative viability was 0.735.

Which relative viability does the source give for NCI-H650 here?
Its relative viability is 0.891.

For PC-3 [JPC-3], which relative viability is on record?
The relative viability was 0.733.

Same assay, conditions: first compound 0.1265 µM

For NCI-H1975, which relative viability is on record?
Its relative viability is 0.243.

Which relative viability does the source give for RERF-LC-KJ here?
The relative viability was 1.14.

For ABC-1, which relative viability is on record?
Its relative viability is 0.719.

For NCI-H1944, which relative viability is on record?
The relative viability was 0.735.

How did the relative viability turn out when NCI-H650 was run?
Its relative viability is 0.688.

PC-3 [JPC-3] was tested. Which relative viability did it give?
Its relative viability is 0.71.

Same assay, conditions: first compound 0.4 µM

NCI-H1975 was tested. Which relative viability did it give?
Its relative viability is 0.326.

With RERF-LC-KJ as the cell line, how does the relative viability read?
Its relative viability is 1.26.

NCI-H1944 was tested. Which relative viability did it give?
Its relative viability is 0.663.

Which relative viability does the source give for NCI-H650 here?
Its relative viability is 0.583.

For PC-3 [JPC-3], which relative viability is on record?
Its relative viability is 0.672.

Same assay, conditions: first compound 1.265 µM

With NCI-H1975 as the cell line, how does the relative viability read?
The relative viability was 0.116.

Which relative viability does the source give for RERF-LC-KJ here?
The relative viability was 1.17.

Which relative viability does the source give for ABC-1 here?
Its relative viability is 0.52.

For NCI-H1944, which relative viability is on record?
Its relative viability is 0.817.

With NCI-H650 as the cell line, how does the relative viability read?
Its relative viability is 0.602.

With PC-3 [JPC-3] as the cell line, how does the relative viability read?
Its relative viability is 0.671.

Same assay, conditions: first compound 4 µM

NCI-H1975 was tested. Which relative viability did it give?
Its relative viability is 0.153.

Which relative viability does the source give for RERF-LC-KJ here?
The relative viability was 0.715.

For ABC-1, which relative viability is on record?
The relative viability was 0.41.

Which relative viability does the source give for NCI-H1944 here?
The relative viability was 0.844.

With NCI-H650 as the cell line, how does the relative viability read?
Its relative viability is 0.698.

Which relative viability does the source give for PC-3 [JPC-3] here?
The relative viability was 0.628.

Compound: Cc1ccc2nc(NCCN)c3ncc(C)n3c2c1 + Cc1nc(Nc2ncc(C(=O)Nc3c(C)cccc3Cl)s2)cc(N2CCN(CCO)CC2)n1 [Dasatinib] (partner 0.075 µM)
Assay: as above
Conditions: first compound 0.04 µM
Method in brief: as §1

How did the relative viability turn out when NCI-H1975 was run?
The relative viability was 0.409.

With RERF-LC-KJ as the cell line, how does the relative viability read?
Its relative viability is 0.873.

How did the relative viability turn out when ABC-1 was run?
Its relative viability is 0.613.

For NCI-H1944, which relative viability is on record?
Its relative viability is 0.242.

With NCI-H650 as the cell line, how does the relative viability read?
Its relative viability is 0.49.

How did the relative viability turn out when PC-3 [JPC-3] was run?
Its relative viability is 1.11.

Same assay, conditions: first compound 0.1265 µM

NCI-H1975 was tested. Which relative viability did it give?
The relative viability was 0.387.

RERF-LC-KJ was tested. Which relative viability did it give?
The relative viability was 0.698.

How did the relative viability turn out when ABC-1 was run?
The relative viability was 0.573.

NCI-H1944 was tested. Which relative viability did it give?
Its relative viability is 0.216.

NCI-H650 was tested. Which relative viability did it give?
The relative viability was 0.449.

How did the relative viability turn out when PC-3 [JPC-3] was run?
The relative viability was 0.995.

Same assay, conditions: first compound 0.4 µM

NCI-H1975 was tested. Which relative viability did it give?
Its relative viability is 0.347.

With RERF-LC-KJ as the cell line, how does the relative viability read?
Its relative viability is 0.757.

ABC-1 was tested. Which relative viability did it give?
Its relative viability is 0.501.

How did the relative viability turn out when NCI-H1944 was run?
The relative viability was 0.212.

For NCI-H650, which relative viability is on record?
Its relative viability is 0.464.

How did the relative viability turn out when PC-3 [JPC-3] was run?
The relative viability was 0.857.

Same assay, conditions: first compound 1.265 µM

NCI-H1975 was tested. Which relative viability did it give?
The relative viability was 0.359.

For RERF-LC-KJ, which relative viability is on record?
Its relative viability is 0.748.

With ABC-1 as the cell line, how does the relative viability read?
Its relative viability is 0.57.

With NCI-H1944 as the cell line, how does the relative viability read?
The relative viability was 0.269.

How did the relative viability turn out when NCI-H650 was run?
The relative viability was 0.431.

How did the relative viability turn out when PC-3 [JPC-3] was run?
Its relative viability is 1.01.

Same assay, conditions: first compound 4 µM

For NCI-H1975, which relative viability is on record?
The relative viability was 0.304.

With RERF-LC-KJ as the cell line, how does the relative viability read?
The relative viability was 0.503.

With ABC-1 as the cell line, how does the relative viability read?
Its relative viability is 0.594.

Which relative viability does the source give for NCI-H1944 here?
Its relative viability is 0.248.

Which relative viability does the source give for NCI-H650 here?
The relative viability was 0.448.

How did the relative viability turn out when PC-3 [JPC-3] was run?
Its relative viability is 0.932.

Compound: Cc1ccc2nc(NCCN)c3ncc(C)n3c2c1 + O=C(CCCCCCC(=O)Nc1ccccc1)NO [Vorinostat] (partner 1 µM)
Assay: as above
Conditions: first compound 0.04 µM
Method in brief: as §1

For NCI-H1975, which relative viability is on record?
The relative viability was 0.733.

With RERF-LC-KJ as the cell line, how does the relative viability read?
Its relative viability is 0.749.

For ABC-1, which relative viability is on record?
The relative viability was 1.32.

Which relative viability does the source give for NCI-H1944 here?
The relative viability was 0.639.

Which relative viability does the source give for NCI-H650 here?
Its relative viability is 0.584.

How did the relative viability turn out when PC-3 [JPC-3] was run?
The relative viability was 0.825.

Same assay, conditions: first compound 0.1265 µM

Which relative viability does the source give for NCI-H1975 here?
The relative viability was 0.711.

Which relative viability does the source give for RERF-LC-KJ here?
Its relative viability is 0.773.

Which relative viability does the source give for ABC-1 here?
Its relative viability is 1.12.

How did the relative viability turn out when NCI-H1944 was run?
The relative viability was 0.581.

How did the relative viability turn out when NCI-H650 was run?
The relative viability was 0.461.

Which relative viability does the source give for PC-3 [JPC-3] here?
Its relative viability is 0.752.

Same assay, conditions: first compound 0.4 µM

Which relative viability does the source give for NCI-H1975 here?
Its relative viability is 0.753.

Which relative viability does the source give for RERF-LC-KJ here?
The relative viability was 0.713.

For ABC-1, which relative viability is on record?
The relative viability was 1.39.

With NCI-H1944 as the cell line, how does the relative viability read?
Its relative viability is 0.358.

Which relative viability does the source give for NCI-H650 here?
Its relative viability is 0.351.

Which relative viability does the source give for PC-3 [JPC-3] here?
The relative viability was 0.709.

Same assay, conditions: first compound 1.265 µM

For NCI-H1975, which relative viability is on record?
Its relative viability is 0.708.

How did the relative viability turn out when RERF-LC-KJ was run?
The relative viability was 0.861.

For ABC-1, which relative viability is on record?
The relative viability was 0.989.

How did the relative viability turn out when NCI-H1944 was run?
Its relative viability is 0.491.

For NCI-H650, which relative viability is on record?
Its relative viability is 0.534.

Which relative viability does the source give for PC-3 [JPC-3] here?
Its relative viability is 0.774.

Same assay, conditions: first compound 4 µM

How did the relative viability turn out when NCI-H1975 was run?
The relative viability was 0.582.

How did the relative viability turn out when RERF-LC-KJ was run?
Its relative viability is 0.712.

With ABC-1 as the cell line, how does the relative viability read?
The relative viability was 0.836.

How did the relative viability turn out when NCI-H1944 was run?
Its relative viability is 0.581.

Which relative viability does the source give for NCI-H650 here?
Its relative viability is 0.409.

With PC-3 [JPC-3] as the cell line, how does the relative viability read?
Its relative viability is 0.734.

Compound: O=C(/C=C/c1ccccc1)NC(NC(=S)Nc1cccc2cccnc12)C(Cl)(Cl)Cl [Salubrinal] + Cc1cc(Nc2cc(N3CCN(C)CC3)nc(Sc3ccc(NC(=O)C4CC4)cc3)n2)n[nH]1 [Tozasertib] (partner 0.1 µM)
Assay: as above
Conditions: first compound 0.08 µM
Method in brief: as §1

Which relative viability does the source give for NCI-H1975 here?
The relative viability was 0.989.

RERF-LC-KJ was tested. Which relative viability did it give?
Its relative viability is 0.584.

Which relative viability does the source give for ABC-1 here?
The relative viability was 0.168.

With NCI-H1944 as the cell line, how does the relative viability read?
Its relative viability is 0.269.

How did the relative viability turn out when NCI-H650 was run?
Its relative viability is 0.81.

For PC-3 [JPC-3], which relative viability is on record?
The relative viability was 1.12.

Same assay, conditions: first compound 0.253 µM

How did the relative viability turn out when NCI-H1975 was run?
Its relative viability is 0.621.

With RERF-LC-KJ as the cell line, how does the relative viability read?
The relative viability was 0.433.

With ABC-1 as the cell line, how does the relative viability read?
The relative viability was 0.185.

Which relative viability does the source give for NCI-H1944 here?
Its relative viability is 0.269.

For NCI-H650, which relative viability is on record?
Its relative viability is 0.768.

For PC-3 [JPC-3], which relative viability is on record?
Its relative viability is 0.649.

Same assay, conditions: first compound 0.8 µM

For NCI-H1975, which relative viability is on record?
The relative viability was 0.785.

RERF-LC-KJ was tested. Which relative viability did it give?
The relative viability was 0.513.

ABC-1 was tested. Which relative viability did it give?
The relative viability was 0.194.

How did the relative viability turn out when NCI-H1944 was run?
Its relative viability is 0.276.

NCI-H650 was tested. Which relative viability did it give?
The relative viability was 0.798.

PC-3 [JPC-3] was tested. Which relative viability did it give?
Its relative viability is 0.857.

Same assay, conditions: first compound 2.53 µM

How did the relative viability turn out when NCI-H1975 was run?
Its relative viability is 0.517.

How did the relative viability turn out when RERF-LC-KJ was run?
The relative viability was 0.435.

How did the relative viability turn out when ABC-1 was run?
Its relative viability is 0.183.

Which relative viability does the source give for NCI-H1944 here?
Its relative viability is 0.229.

For NCI-H650, which relative viability is on record?
Its relative viability is 0.687.

With PC-3 [JPC-3] as the cell line, how does the relative viability read?
Its relative viability is 0.896.

Same assay, conditions: first compound 8 µM

Which relative viability does the source give for NCI-H1975 here?
Its relative viability is 0.186.

With RERF-LC-KJ as the cell line, how does the relative viability read?
The relative viability was 0.285.

For ABC-1, which relative viability is on record?
Its relative viability is 0.206.

For NCI-H1944, which relative viability is on record?
The relative viability was 0.278.

Which relative viability does the source give for NCI-H650 here?
The relative viability was 0.704.

With PC-3 [JPC-3] as the cell line, how does the relative viability read?
Its relative viability is 0.831.
